Data reported in BindingDB's records for patent US20250313563 (The Broad Institute, 2025).
Several values for one entry are separate records, joined by “and”; a condition that tells them apart may be missing. Equal values may be shown once.

The compounds below were run against Glycogen synthase kinase-3 beta (Homo sapiens, UniProt P49841) (assay: TR-FRET Assay).
Experimental: The assay was performed in a white, 384 well, low volume, flat bottom plate (Grenier). […] The kinase activity was quenched with 2 μL of 250 mM EDTA. A 10 μL volume of 40 nM Strepavidin-d2, 2 nM Tb2+-pSer641 antibody in TR-FRET Detection Buffer (Invitrogen) was then added.

Sequence of Glycogen synthase kinase-3 beta (P49841 whole entry): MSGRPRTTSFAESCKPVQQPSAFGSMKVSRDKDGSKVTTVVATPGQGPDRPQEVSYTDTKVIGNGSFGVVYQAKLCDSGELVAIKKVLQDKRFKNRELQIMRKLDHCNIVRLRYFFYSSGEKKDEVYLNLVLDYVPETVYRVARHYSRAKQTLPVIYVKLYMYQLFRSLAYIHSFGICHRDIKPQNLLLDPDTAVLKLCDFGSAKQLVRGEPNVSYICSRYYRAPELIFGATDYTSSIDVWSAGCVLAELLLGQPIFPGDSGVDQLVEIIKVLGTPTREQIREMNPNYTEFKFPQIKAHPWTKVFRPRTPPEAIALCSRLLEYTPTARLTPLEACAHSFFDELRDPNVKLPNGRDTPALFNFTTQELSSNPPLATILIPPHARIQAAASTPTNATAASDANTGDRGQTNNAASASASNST

Structure (SMILES) | IC50
CC(C)(C)CC1N=NC2=C1C1(CN(c3ccccc3)C1)C1=C(CC(C)(C)CC1=O)N2 (stereo not given) [US20250313563, Compound 93429] | 1000 to 5000 nM and 134 nM
CC(C)(C)CC1N=NC2=C1[C@@](C)(c1ccccc1)C1=C(CC(C)(C)NC1=O)N2 (stereo not given in full) [US20250313563, Compound 114532] | > 5000 nM
CN1C[C@@]2(C3=C(CC(C)(C)CC3=O)NC3N=NC(CC(C)(C)C)=C32)c2ccccc21 (stereo not given in full) [US20250313563, Compound 125979] | 1000 to 5000 nM
CC(C)(C)CC1N=NC2=C1[C@@](C)(c1cccc(N3C=COCC3)c1)C1=C(CC(C)(C)CC1=O)N2 (stereo not given in full) [US20250313563, Compound 126399] | > 5000 nM
CC1(C)CC(=O)C2=C(C1)NC1N=NC(C3CC(F)(F)C3)=C1[C@]21COc2ccccc21 (stereo not given in full) [US20250313563, Compound 127429] | 1000 to 5000 nM
CC(C)(C)CC1=C2C(N=N1)NC1=C(C(=O)CC(C)(C)C1)[C@]21CCc2c(F)cccc21 (stereo not given in full) [US20250313563, Compound 791256] | 1000 to 5000 nM
CC[C@]1(c2cccc(Cl)c2)C2=C(CC(C)(C)CC2=O)NC2N=NC(Br)=C21 (stereo not given in full) [US20250313563, Compound 801314] | < 100 nM and 100 to 1000 nM
CC(C)(C)CC1N=NC2=C1[C@@]1(CCc3cccc(F)c31)C1=C(CC(C)(C)CC1=O)N2 (stereo not given in full) [US20250313563, Compound 801351] | 100 to 1000 nM
CC[C@]1(c2cccc(COC)c2)C2=CN=NC2NC2=C1C(=O)CC(C)(C)C2 (stereo not given in full) [US20250313563, Compound 810360] | 100 to 1000 nM
CC[C@]1(c2cccc(C(F)(F)F)c2)C2=C(CC(C)(C)CC2=O)NC2N=NC(Br)=C21 (stereo not given in full) [US20250313563, Compound 810466] | 100 to 1000 nM
CC[C@@]1(c2cccc(OC)c2)C2=CN=NC2NC2=C1C(=O)C[C@H](C)C2 (stereo not given in full) [US20250313563, Compound 811559] | 100 to 1000 nM
CC1(C)CC(=O)C2=C(C1)NC1N=NC(C3(C(F)(F)F)CC3)=C1[C@@]21CCc2c(F)cccc21 (stereo not given in full) [US20250313563, Compound 816839] | 1000 to 5000 nM
CC[C@]1(c2cccc(-c3cnn(C)c3)c2)C2=CN=NC2NC2=C1C(=O)C[C@H](C)C2 (stereo not given in full) [US20250313563, Compound 823720] | 100 to 1000 nM
CC[C@]1(c2cccc(S(C)(=O)=O)c2)C2=CN=NC2NC2=C1C(=O)CC(C)(C)C2 (stereo not given in full) [US20250313563, Compound 826718] | < 100 nM and 100 to 1000 nM
CC[C@]1(c2cccc(Br)c2)C2=CN=NC2NC2=C1C(=O)[C@H](F)C(C)(C)C2 (stereo not given in full) [US20250313563, Compound 835314] | 100 to 1000 nM
CC[C@@]1(c2cccc(C)c2)C2=C(CC(C)(C)CC2=O)NC2N=NC(C(F)(F)F)=C21 (stereo not given in full) [US20250313563, Compound 883873] | 100 to 1000 nM
CC[C@@]1(c2cccc(N3CCCC3)c2)C2=C(CC(C)(C)CC2=O)NC2N=NC(C)=C21 (stereo not given in full) [US20250313563, Compound 883874] | 100 to 1000 nM
CCC1(c2cccc(-c3ccncc3)c2)C2=CN=NC2NC2=C1C(=O)CC(C)(C)C2 (stereo not given) [US20250313563, Compound 883984] | < 100 nM
CCC1(c2cccc(N3CCC[C@H]3C)c2)C2=CN=NC2NC2=C1C(=O)CC(C)(C)C2 (stereo not given in full) [US20250313563, Compound 885204] | 100 to 1000 nM
CC[C@@]1(c2cccc(OC)c2)C2=C(CC(C)(C)CC2=O)NC2N=NC(C(=O)OC)=C21 (stereo not given in full) [US20250313563, Compound 901480] | 100 to 1000 nM

Structure (SMILES) | IC50
CCC1(c2cccc(C(F)(F)F)c2)C2=C(N=NC2)NC2=C1C(=O)N(C)C2C (stereo not given) [US20250313563, Compound 911957] | 100 to 1000 nM
CC[C@]1(c2cccc(-c3ccnn3C)c2)C2=CN=NC2NC2=C1C(=O)CC(C)(C)C2 (stereo not given in full) [US20250313563, Compound 911992] | 100 to 1000 nM
CC[C@]1(c2cccc(S(=O)(=O)C3CC3)c2)C2=CN=NC2NC2=C1C(=O)CC(C)(C)C2 (stereo not given in full) [US20250313563, Compound 912171] | < 100 nM and 100 to 1000 nM
CC[C@@]1(c2cccc(C(F)(F)F)c2)C2=CN=NC2NC2=C1C(=O)N(CC(F)(F)F)CC2 (stereo not given in full) [US20250313563, Compound 912206] | 100 to 1000 nM
CC[C@@]1(c2cccc(-c3ccnn3C)c2)C2=C(CC(C)(C)CC2=O)NC2N=NC(C)=C21 (stereo not given in full) [US20250313563, Compound 913023] | < 100 nM and 100 to 1000 nM
CC[C@@]1(c2cccc(C3=CN=NC3)c2)C2=C(CC(C)(C)CC2=O)NC2N=NC(C)=C21 (stereo not given in full) [US20250313563, Compound 913025] | 100 to 1000 nM
CC[C@]1(c2cccc(-c3cnn4c3CCCC4)c2)C2=C(CC(C)(C)CC2=O)NC2N=NC(C)=C21 (stereo not given in full) [US20250313563, Compound 913036] | 100 to 1000 nM
CC[C@]1(c2cccc(-c3cnn(C)c3C)c2)C2=C(CC(C)(C)CC2=O)NC2N=NC(C)=C21 (stereo not given in full) [US20250313563, Compound 913045] | < 100 nM and 100 to 1000 nM
CC[C@]1(c2cccc(-c3ccncc3F)c2)C2=C(CC(C)(C)CC2=O)NC2N=NC(C)=C21 (stereo not given in full) [US20250313563, Compound 913052] | 100 to 1000 nM
CC[C@@]1(c2cccc(S(=O)(=O)C(C)C)c2)C2=CN=NC2NC2=C1C(=O)CC(C)(C)C2 (stereo not given in full) [US20250313563, Compound 913135] | 100 to 1000 nM
CC[C@]1(c2cccc(C(F)(F)F)c2)C2=C(N=NC2)NC2=C1C(=O)N(C)[C@@H]2C [US20250313563, Compound 913454] | 100 to 1000 nM
CC[C@]1(c2cccc(C(F)(F)F)c2)C2=C(N=NC2)NC2=C1C(=O)N(C)[C@H]2C [US20250313563, Compound 913473] | 100 to 1000 nM
CC[C@@]1(c2cccc(C(F)(F)F)c2)C2=C(N=NC2)NC2=C1C(=O)N(C)[C@@H]2C [US20250313563, Compound 913475] | > 5000 nM
CC[C@@]1(c2cccc(C(F)(F)F)c2)C2=C(N=NC2)NC2=C1C(=O)N(C)[C@H]2C [US20250313563, Compound 913495] | > 5000 nM
CC[C@]1(c2cccc(S(=O)(=O)CC3CC3)c2)C2=CN=NC2NC2=C1C(=O)CC(C)(C)C2 (stereo not given in full) [US20250313563, Compound 917150] | 100 to 1000 nM
CC[C@@]1(c2cccc(-c3cc(C)ncc3F)c2)C2=CN=NC2NC2=C1C(=O)CC(C)(C)C2 (stereo not given in full) [US20250313563, Compound 927346] | 1000 to 5000 nM
CCCS(=O)(=O)c1cccc([C@@]2(CC)C3=CN=NC3NC3=C2C(=O)CC(C)(C)C3)c1 (stereo not given in full) [US20250313563, Compound 929447] | < 100 nM and 100 to 1000 nM
CC[C@]1(c2cccc(C(F)(F)F)c2)C2=CN=NC2NC2=C1C(=O)N(c1ccccc1)CC2 (stereo not given in full) [US20250313563, Compound 929474] | 100 to 1000 nM
CC[C@]1(c2cccc(N(C)c3ccnc(OC)c3)c2)C2=CN=NC2NC2=C1C(=O)CC(C)(C)C2 (stereo not given in full) [US20250313563, Compound 932642] | 100 to 1000 nM
COC(=O)C1(c2ccccc2)CC2(C1)C1=C(N=NC1)NC1=C2C(=O)CC(C)(C)C1 (stereo not given) [US20250313563, Compound 942344] | 100 to 1000 nM

Structure (SMILES) | IC50
CC1(C)CC(=O)C2=C(C1)NC1=C(CN=N1)[C@]21CCN(S(=O)(=O)c2ccccc2F)C1 [US20250313563, Compound 943487] | 100 to 1000 nM
CC[C@]1(c2cccc(-c3ccnc(C)c3C)c2)C2=CN=NC2NC2=C1C(=O)CC(C)(C)C2 (stereo not given in full) [US20250313563, Compound 943516] | 1000 to 5000 nM
CC[C@]1(c2cccc(-c3ccncc3F)c2)C2=CN=NC2NC2=C1C(=O)CC(C)(C)C2 (stereo not given in full) [US20250313563, Compound 943518] | 100 to 1000 nM
COc1cccc(S(=O)(=O)N2CCC3(CC2)C2=C(N=NC2)NC2=C3C(=O)CC(C)(C)C2)c1 [US20250313563, Compound 943962] | 100 to 1000 nM
CC[C@]1(c2cccc(-c3cc(C)nn3C)c2)C2=CN=NC2NC2=C1C(=O)NC(C)(C)C2 (stereo not given in full) [US20250313563, Compound 943966] | 100 to 1000 nM
CC[C@]1(c2cccc(-c3ccncc3C)c2)C2=CN=NC2NC2=C1C(=O)CC(C)(C)C2 (stereo not given in full) [US20250313563, Compound 943990] | 100 to 1000 nM
CC[C@]1(c2cccc(-c3ccnc(O)c3)c2)C2=CN=NC2NC2=C1C(=O)CC(C)(C)C2 (stereo not given in full) [US20250313563, Compound 943992] | 100 to 1000 nM
CC[C@@]1(c2cccc(-c3ccnc4c3CCCC4)c2)C2=CN=NC2NC2=C1C(=O)CC(C)(C)C2 (stereo not given in full) [US20250313563, Compound 944033] | 100 to 1000 nM
CC1(C)CC(=O)C2=C(C1)NC1=C(CN=N1)[C@@]21COC2(CN(C(=O)C3CCC4(CC3)COC4)C2)C1 [US20250313563, Compound 944075] | 100 to 1000 nM
CC[C@]1(c2cccc(N(C)c3nccc(C)n3)c2)C2=CN=NC2NC2=C1C(=O)CC(C)(C)C2 (stereo not given in full) [US20250313563, Compound 945328] | 100 to 1000 nM
CC[C@]1(c2cccc(C(F)(F)F)c2)C2=C(N=NC2)NC2=C1C(=O)N[C@@H]2C [US20250313563, Compound 945378] | 100 to 1000 nM
CC[C@@]1(c2cccc(C(F)(F)F)c2)C2=CN=NC2NC2=C1C(=O)NC[C@@H]2C (stereo not given in full) [US20250313563, Compound 945382] | 100 to 1000 nM
CC1(C)CC(=O)C2=C(C1)NC1=C(CN=N1)[C@]21COC2(CN(C(=O)C3CCOCC3)C2)C1 [US20250313563, Compound 945407] | 100 to 1000 nM
CC[C@]1(c2cccc(-c3ccncc3OC)c2)C2=CN=NC2NC2=C1C(=O)CC(C)(C)C2 (stereo not given in full) [US20250313563, Compound 945481] | 100 to 1000 nM
Cn1ccc(S(=O)(=O)N2CC[C@@]3(C2)C2=C(N=NC2)NC2=C3C(=O)CC(C)(C)C2)n1 [US20250313563, Compound 945712] | 100 to 1000 nM
CC[C@@]1(c2cccc(-c3cncn3C(C)C)c2)C2=CN=NC2NC2=C1C(=O)CC(C)(C)C2 (stereo not given in full) [US20250313563, Compound 945725] | < 100 nM and 100 to 1000 nM
CC[C@]1(c2cccc(Nc3ncccn3)c2)C2=CN=NC2NC2=C1C(=O)CC(C)(C)C2 (stereo not given in full) [US20250313563, Compound 945943] | 100 to 1000 nM
CCCn1nccc1-c1cccc([C@]2(CC)C3=CN=NC3NC3=C2C(=O)CC(C)(C)C3)c1 (stereo not given in full) [US20250313563, Compound 946093] | 100 to 1000 nM
CC[C@@]1(c2cccc(-c3cc(C)nn3C)c2)C2=CN=NC2NC2=C1C(=O)CC(C)(C)C2 (stereo not given in full) [US20250313563, Compound 946097] | 100 to 1000 nM
CCN(c1cccc([C@@]2(CC)C3=CN=NC3NC3=C2C(=O)CC(C)(C)C3)c1)c1ncccn1 (stereo not given in full) [US20250313563, Compound 947333] | 100 to 1000 nM
